# Earlier results as cited in patent US10653634B1, “Polymeric nanoparticulate formulation to enhance the oral bioavailability of dapoxetine” (King Abdulaziz University, priority 2019, dated 2020).
# Columns and labels:
# [1] = not given; remark: listed apart in the source
smiles,measurement,setting,value
"CN(C)[C@@H](CCOc1cccc2ccccc12)c1ccccc1 [DPX, (1S)—N,N-dimethyl-3-naphthalen-1-yloxy-1-phenylpropan-1-amine]",bioavailability after oral administration (mean),,42%
same,bioavailability after oral administration (variability),,15-76%
same,time to peak plasma concentration after oral administration,,60 to 80 min
same,pKa,[1],8.6
same,aqueous solubility,[1]; protonated DPX,68 mg/mL
